Laboratory results from US10654837B2, “Sulphamoylaryl derivatives and use thereof as medicaments for the treatment of liver fibrosis” (Janssen Pharmaceutica NV, priority 2017, dated 2020).

Molecular target: T1, 5HTR2B (Homo sapiens, UniProt P41595)
T1 construct: host or cells: human Maverick/293 cells
Test: 5HTR2B antagonist activity, calcium mobilization assay in human Maverick/293 cells (serotonin as agonist)
Assay type: cell-based
Conditions: intracellular calcium, emission 525 nm, read-out: Ca assay IC50
Experimental: The 5HTR2B antagonist activity was measured using human Maverick/293 cells in a calcium mobilization assay. The measurement starting with plating human Maverick/293 cells (log phase) onto 96-well black and incubate at 37° C. overnight, Followed by starving cells for 2 h by changing complete medium to DMEM without FBS, removing the medium from the 96-well plate. Loading staining calcium buffer into each well and incubated the plate at 37° C. for 50 min. After removal of staining calcium buffer, diluted antagonist were added into the well, incubate 15 to 30 minutes. Dispense serotonin as the 5HTR2B agonists into each well. Intracellular calcium concentration is recorded for 80 seconds by monitoring an emission at a wavelength of 525 nm with an excitation wavelength of 485 nm. Inhibition efficiency of the cell line was determined following the equation: % Inhibition=100%−(D−B)/(S−B)*100%. (S: The peak value in the presence of agonist serotonin; D: The peak value in the presence of different dilution compound or serotonin; B: The peak value in the presence of calcium HBSS buffer only). […] A dose response curve was fitted using nonlinear regression model with a sigmoidal dose response. The IC50 was automatically produced by GraphPad Prism 5.0.

T1 sequence (P41595 whole entry): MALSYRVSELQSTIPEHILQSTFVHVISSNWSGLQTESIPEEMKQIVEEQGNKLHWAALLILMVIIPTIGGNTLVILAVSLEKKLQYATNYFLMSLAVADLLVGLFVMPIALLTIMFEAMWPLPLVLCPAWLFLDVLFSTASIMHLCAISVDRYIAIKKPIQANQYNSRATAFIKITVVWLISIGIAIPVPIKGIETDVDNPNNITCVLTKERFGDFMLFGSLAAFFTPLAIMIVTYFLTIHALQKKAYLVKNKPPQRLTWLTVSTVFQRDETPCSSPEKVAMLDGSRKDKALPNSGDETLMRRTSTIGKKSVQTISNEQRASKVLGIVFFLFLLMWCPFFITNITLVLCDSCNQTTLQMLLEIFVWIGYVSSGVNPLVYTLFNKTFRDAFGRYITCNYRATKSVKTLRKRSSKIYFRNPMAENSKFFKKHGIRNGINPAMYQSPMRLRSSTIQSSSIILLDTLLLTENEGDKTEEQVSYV

Structure (SMILES) | IC50
COc1ccc(S(=O)(=O)N[C@H]2CCCOC2)cc1C(=O)Nc1ccc(F)cc1 [Compound 41, (S)—N-(4-Fluorophenyl)-2-methoxy-5-(N-(tetrahydro-2H-pyran-3-yl)sulfamoyl) benzamide] | 0.7 nM
COc1ccc(S(=O)(=O)N[C@H]2CCCOC2)cc1C(=O)Nc1ccc(F)c(C(F)F)c1 [Compound 37, (S)—N-(3-(Difluoromethyl)-4-fluorophenyl)-2-methoxy-5-(N-(tetrahydro-2H-pyran-3-yl)sulfamoyl)benzamide] | 0.8 nM
COc1ccc(S(=O)(=O)NC2CCCCC2)cc1C(=O)Nc1ccc(F)c(C)n1 [Compound 20, 5-(N-Cyclohexylsulfamoyl)-N-(5-fluoro-6-methylpyridin-2-yl)-2-methoxy benzamide] | 4.4 nM
[2H]C([2H])([2H])Oc1ccc(S(=O)(=O)N[C@H]2CCOC2)cc1C(=O)Nc1ccc(F)c(C)n1 [Compound 194, (S)—N-(5-fluoro-6-methylpyridin-2-yl)-2-(methoxy-d3)-5-(N-(tetrahydrofuran-3-yl)sulfamoyl)benzamide] | 1.1 nM
COc1ccc(S(=O)(=O)NCC(O)C(F)(F)F)cc1C(=O)Nc1ccc(F)c(C)n1 (single isomer, unassigned) [Compound 23a, (R*)—N-(5-fluoro-6-methylpyridin-2-yl)-2-methoxy-5-(N-(3,3,3-trifluoro-2-hydroxypropyl)sulfamoyl)benzamide] | 4.7 nM
[2H]C([2H])([2H])Oc1ccc(S(=O)(=O)N[C@H]2CCOC2)cc1C(=O)Nc1ccc(F)cn1 [Compound 193, (S)—N-(5-fluoropyridin-2-yl)-2-(methoxy-d3)-5-(N-(tetrahydrofuran-3-yl)sulfamoyl)benzamide] | 3.2 nM
COc1ccc(S(=O)(=O)N[C@H]2CCOC2)cc1C(=O)Nc1c(F)cc(Cl)cc1F [Compound 91, (S)—N-(4-Chloro-2,6-difluorophenyl)-2-methoxy-5-(N-(tetrahydrofuran-3-yl)sulfamoyl)benzamide] | 92 nM
COc1ccc(S(=O)(=O)N[C@H](C)CO)cc1C(=O)Nc1ccc(F)c(C)c1 [Compound 10b, (R)—N-(4-Fluoro-3-methylphenyl)-5-(N-(1-hydroxypropan-2-yl)sulfamoyl)-2-methoxybenzamide] | 12 nM
COCCOC[C@H](C)NS(=O)(=O)c1ccc(OC)c(C(=O)Nc2ccc(F)cc2F)c1 [Compound 147a, (S)—N-(2,4-Difluorophenyl)-2-methoxy-5-(N-(1-(2-methoxyethoxy)propan-2-yl)sulfamoyl)benzamide] | 3.4 nM
COc1ccc(S(=O)(=O)N[C@H]2CCOC2)cc1C(=O)Nc1cc(Cl)cc(Cl)c1 [Compound 86, (S)—N-(3,5-Dichlorophenyl)-2-methoxy-5-(N-(tetrahydrofuran-3-yl)sulfamoyl) benzamide] | 1.8 nM
COC[C@@H](C)NS(=O)(=O)c1ccc(OC)c(C(=O)Nc2ccc(F)cc2)c1 (single isomer, unassigned) [Compound 40b, (R*)—N-(4-Fluorophenyl)-2-methoxy-5-(N-(1-methoxypropan-2-yl)sulfamoyl) benzamide] | 9.5 nM
COc1ccc(S(=O)(=O)NC(C)CO)cc1C(=O)Nc1ccc(F)c(C)c1 (stereo not drawn) [Compound 10, N-(4-Fluoro-3-methylphenyl)-5-(N-(1-hydroxypropan-2-yl)sulfamoyl)-2-methoxybenzamide] | 4.5 nM

Continued, values first:

IC50 | Structure (SMILES)
2.2 nM | COc1ccc(S(=O)(=O)N[C@H]2C[C@H](O)C2)cc1C(=O)Nc1ccc(F)c(C(F)F)c1 [Compound 142a, N-(3-(difluoromethyl)-4-fluorophenyl)-5-(N-((trans)-3-hydroxycyclobutyl)sulfamoyl)-2-methoxybenzamide]
0.8 nM | COc1ccc(S(=O)(=O)N[C@H]2CCOC2)cc1C(=O)Nc1ccc(Cl)c(F)c1 [Compound 115, (S)—N-(4-Chloro-3-fluorophenyl)-2-methoxy-5-(N-(tetrahydrofuran-3-yl)sulfamoyl)benzamide]
6.9 nM | COc1ccc(S(=O)(=O)N[C@H]2C[C@H](C)C2)cc1C(=O)Nc1ccc(F)c(C)c1 [Compound 7b, N-(4-Fluoro-3-methylphenyl)-2-methoxy-5-(N-((trans)-3-methylcyclobutyl)sulfamoyl)benzamide]
55 nM | COc1ccc(S(=O)(=O)N[C@H]2C[C@@](C)(O)C2)cc1C(=O)Nc1ccc(F)c(C)n1 [Compound 31, N-(5-fluoro-6-methylpyridin-2-yl)-5-(N-((cis)-3-hydroxy-3-methylcyclobutyl)sulfamoyl)-2-methoxybenzamide]
0.6 nM | COc1ccc(S(=O)(=O)N[C@H]2CC[C@@H](O)CC2)cc1C(=O)Nc1ccc(F)c(C(F)F)c1 [Compound 38, N-(3-(Difluoromethyl)-4-fluorophenyl)-5-(N-((cis)-4-hydroxycyclohexyl)sulfamoyl)-2-methoxybenzamide]
0.9 nM | COc1ccc(S(=O)(=O)N[C@H]2C[C@@H](O)C2)cc1C(=O)Nc1cccc(C)c1Cl [Compound 140b, N-(2-Chloro-3-methylphenyl)-5-(N-((cis)-3-hydroxycyclobutyl)sulfamoyl)-2-methoxybenzamide]
0.3 nM | COc1ccc(S(=O)(=O)N[C@H]2CCNC2)cc1C(=O)Nc1cc(F)ccc1Cl [Compound 186, (S)—N-(2-chloro-5-fluorophenyl)-2-methoxy-5-(N-(pyrrolidin-3-yl)sulfamoyl) benzamide]
12 nM | COc1ccc(S(=O)(=O)N[C@H]2CCOC2)cc1C(=O)Nc1cccc(Cl)c1 [Compound 126, (S)—N-(3-Chlorophenyl)-2-methoxy-5-(N-(tetrahydrofuran-3-yl)sulfamoyl) benzamide]
0.8 nM | COc1ccc(S(=O)(=O)N[C@H]2C[C@@H](O)C2)cc1C(=O)Nc1ccc(F)c(C)c1F [Compound 173, N-(2,4-Difluoro-3-methylphenyl)-5-(N-((cis)-3-hydroxycyclobutyl)sulfamoyl)-2-methoxybenzamide]
0.4 nM | COc1ccc(S(=O)(=O)NC2CC[C@H](O)C2)cc1C(=O)Nc1ccc(F)c(C(F)F)c1 (stereo in doubt) [Compound 33b, N-(3-(Difluoromethyl)-4-fluorophenyl)-5-(N-((cis)-3-hydroxycyclopentyl)sulfamoyl)-2-methoxybenzamide]
1.7 nM | COc1ccc(S(=O)(=O)N[C@H]2CCOC2)cc1C(=O)Nc1cccc(F)c1Cl [Compound 3, (S)—N-(2-Chloro-3-fluorophenyl)-2-methoxy-5-(N-(tetrahydrofuran-3-yl)sulfamoyl) benzamide]
159 nM | COc1ccc(S(=O)(=O)N[C@H]2C[C@H](O)C2)cc1C(=O)Nc1ccc(F)cn1 [Compound 156]
0.34 nM | COc1ccc(S(=O)(=O)N[C@H]2CCOC2)cc1C(=O)Nc1ccc(F)cc1F [Compound 65, (S)—N-(2,4-Difluorophenyl)-2-methoxy-5-(N-(tetrahydrofuran-3-yl)sulfamoyl) benzamide]
0.1 nM | COc1ccc(S(=O)(=O)NC2COC[C@@H]2O)cc1C(=O)Nc1ccccc1Cl (stereo in doubt) [Compound 56a, N-(2-Chlorophenyl)-5-(N-((cis)-4-hydroxytetrahydrofuran-3-yl)sulfamoyl)-2-methoxybenzamide]
3.9 nM | COc1ccc(S(=O)(=O)N[C@H]2C[C@H](O)C2)cc1C(=O)Nc1cccc(C)c1Cl [Compound 140a, N-(2-Chloro-3-methylphenyl)-5-(N-((trans)-3-hydroxycyclobutyl)sulfamoyl)-2-methoxybenzamide]
